As usually defined, the IC50 is the concentration needed to halve the response being measured. A higher IC50 goes with lower potency.

In the first test the target is H1047R PIK3CA enzyme (Homo sapiens, UniProt P42336, H1047R). As to the kind of experiment: ADP-Glo Biochemical PIK3CA Kinase Assay.
Chain of H1047R PIK3CA enzyme (P42336 whole entry H1047R): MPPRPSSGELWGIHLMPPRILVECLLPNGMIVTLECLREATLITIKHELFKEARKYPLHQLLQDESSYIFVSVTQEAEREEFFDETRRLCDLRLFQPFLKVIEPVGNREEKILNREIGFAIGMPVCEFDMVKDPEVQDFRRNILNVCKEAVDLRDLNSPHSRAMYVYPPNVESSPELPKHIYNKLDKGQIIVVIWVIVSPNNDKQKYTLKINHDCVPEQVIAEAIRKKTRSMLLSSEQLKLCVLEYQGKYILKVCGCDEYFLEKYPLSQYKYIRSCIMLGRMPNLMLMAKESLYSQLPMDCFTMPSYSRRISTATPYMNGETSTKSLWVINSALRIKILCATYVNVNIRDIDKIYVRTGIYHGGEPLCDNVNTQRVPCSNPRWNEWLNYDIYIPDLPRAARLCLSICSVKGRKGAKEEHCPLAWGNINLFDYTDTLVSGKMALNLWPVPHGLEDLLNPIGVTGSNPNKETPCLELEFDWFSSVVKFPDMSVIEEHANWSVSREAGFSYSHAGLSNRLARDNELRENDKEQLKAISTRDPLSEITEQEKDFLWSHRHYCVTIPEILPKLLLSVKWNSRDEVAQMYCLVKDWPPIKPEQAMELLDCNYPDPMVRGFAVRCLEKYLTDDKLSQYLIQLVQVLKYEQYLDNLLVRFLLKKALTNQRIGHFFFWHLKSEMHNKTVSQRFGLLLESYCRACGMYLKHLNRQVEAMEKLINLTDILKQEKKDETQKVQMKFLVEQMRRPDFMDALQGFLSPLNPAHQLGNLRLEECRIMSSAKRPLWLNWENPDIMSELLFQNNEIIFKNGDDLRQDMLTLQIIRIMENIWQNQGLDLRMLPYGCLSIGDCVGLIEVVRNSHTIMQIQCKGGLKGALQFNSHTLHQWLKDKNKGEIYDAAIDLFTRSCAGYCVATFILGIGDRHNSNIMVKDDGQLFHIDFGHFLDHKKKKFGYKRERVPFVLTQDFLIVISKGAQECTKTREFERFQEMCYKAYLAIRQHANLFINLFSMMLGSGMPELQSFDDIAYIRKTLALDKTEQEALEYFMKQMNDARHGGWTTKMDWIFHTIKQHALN
Chain of H1047R PIK3CA enzyme (P27986 whole entry partner): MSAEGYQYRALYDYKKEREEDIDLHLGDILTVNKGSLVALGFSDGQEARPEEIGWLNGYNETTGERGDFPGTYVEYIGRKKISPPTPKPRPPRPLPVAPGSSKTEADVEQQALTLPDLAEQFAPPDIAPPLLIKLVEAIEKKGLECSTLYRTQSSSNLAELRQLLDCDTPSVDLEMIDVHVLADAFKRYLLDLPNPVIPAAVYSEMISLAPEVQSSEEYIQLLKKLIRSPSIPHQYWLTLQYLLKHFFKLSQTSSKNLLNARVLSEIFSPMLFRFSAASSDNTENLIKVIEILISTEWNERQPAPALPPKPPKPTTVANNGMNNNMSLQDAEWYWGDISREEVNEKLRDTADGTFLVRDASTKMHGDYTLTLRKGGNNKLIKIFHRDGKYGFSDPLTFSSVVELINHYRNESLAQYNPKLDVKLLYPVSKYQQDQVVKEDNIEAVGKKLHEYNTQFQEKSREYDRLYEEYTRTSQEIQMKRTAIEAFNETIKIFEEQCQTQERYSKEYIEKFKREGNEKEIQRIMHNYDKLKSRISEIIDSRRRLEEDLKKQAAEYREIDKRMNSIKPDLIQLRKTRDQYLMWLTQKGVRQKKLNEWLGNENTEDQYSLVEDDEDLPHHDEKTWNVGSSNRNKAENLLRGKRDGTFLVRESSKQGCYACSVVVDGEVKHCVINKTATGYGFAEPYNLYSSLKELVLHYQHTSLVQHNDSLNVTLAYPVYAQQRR
Conditions: not given
As to the method:
Compounds to be assayed were plated in 16 doses of 1:2 serial dilutions (20 nL volume each well) on a 1536-well plate, and the plate warmed to room temperature. PIK3CA enzyme (e.g. H1047R, E542K, E545K, or wild-type) (1 μL of 2 nM solution in Enzyme Assay Buffer (comprising 50 mM HEPES pH 7.4, 50 mM NaCl, 6 mM MgCl2, 5 mM DTT and 0.03% CHAPS)) was added and shaken for 10 seconds and preincubated for 30 minutes. To the well was added 1 μL of 200 μM ATP and 20 μM of diC8-PIP2 in Substrate Assay Buffer (50 mM HEPES pH7.4, 50 mM NaCl, 5 mM DTT and 0.03% CHAPS) to start the reaction, and the plate was shaken for 10 seconds, then spun briefly at 1500 rpm, and then incubated for 60 minutes at room temperature. The reaction was stopped by adding 2 μL of ADP-Glo reagent (Promega), and spinning briefly at 1500 rpm, and then incubating for 40 minutes. ADP-Glo Detection reagent (Promega) was added and the plate spun briefly at 1500 rpm, then incubated for 30 minutes.
Background: ADP-Glo turns the ADP formed in a reaction into a luminescent signal.
`CNC(=O)c1cnc(Nc2ccccc2C)c(N(S(=O)(=O)c2ccc(F)cc2C)S(=O)(=O)c2ccc(F)cc2C)c1` [I-10] came in with an IC50 of 10 to 100 µM.

With `Cc1ccccc1Nc1ncc(-c2ccccc2C#N)cc1NC(=O)c1cc(F)cc(C(F)(F)F)c1` [I-83], the IC50 is 0.5 to 1 µM.

In the case of `O=C(Nc1ccnn1-c1ccccc1)c1cc(F)cc(C(F)(F)F)c1` [I-806], the IC50 lay within 10 to 100 µM.

Consider `CNC(=O)c1cnc(Nc2ccccc2C)c(NC(=O)CCc2cnccc2C(F)(F)F)c1` [I-384], for which the IC50 was 10 to 100 µM.

With `CNC(=O)c1cnc(Nc2ccccc2C)c(NC(=O)c2ccc3ncccc3c2)c1` [I-183], the IC50 is 10 to 100 µM.

As to `O=C(Nc1cc(-c2cnn(C(F)F)c2)cnc1Nc1cc(F)ccc1Cl)c1cc(F)cc(C(F)(F)F)c1` [I-803, N-(2-((2-chloro-5-fluorophenyl)amino)-5-(1-(difluoromethyl)-1H-pyrazol-4-yl)pyridin-3-yl)-3-fluoro-5-(trifluoromethyl)benzamide], the IC50 was in the range of 1 to 10 µM.

Regarding `Cc1ccccc1Nc1ncc(-c2cnn(C)c2)cc1Nc1ncnn2cccc12` [I-61], the IC50 was 10 to 100 µM.

On to `Cc1ccccc1Nc1ncc(C(O)CO)cc1NC(=O)c1cc(F)cc(C(F)(F)F)c1` (stereo not shown) [I-351], for which the IC50 was 1 to 10 µM.

`CNC(=O)c1cnc(Nc2ccccc2C)c(NC(=O)c2cc(F)cc3[nH]ccc23)c1` [I-392] had an IC50 of 10 to 100 µM.

On to `CNC(=O)CN1CC(=O)N[C@H](c2cc(F)ccc2Cl)[C@H]1C(=O)NC1CCCC(C(F)(F)F)C1` (mixture of isomers) [I-825, trans-3-(2-chloro-5-fluorophenyl)-1-[(methylcarbamoyl)methyl]-5-oxo-N-[3-(trifluoromethyl)cyclohexyl]piperazine-2-carboxamide], for which the IC50 was 10 to 100 µM.

`Cc1ccccc1Nc1ncc(-c2cnn(C)c2)cc1NC(=O)c1cccc(C#N)c1` [I-116] had an IC50 of 10 to 100 µM.

For the compound `Cc1ccccc1Nc1ncc(-c2cnn(CCO)c2)cc1NC(=O)c1cc(F)cc(C(F)(F)F)c1` [I-147], the IC50 lay within 0.5 to 1 µM.

Consider `CNC(=O)c1cnc(Nc2ccccc2C)c(NC(=O)c2csc3c2CCC3)c1` [I-341], for which the IC50 fell in the range of 1 to 10 µM.

`Cc1ccccc1Nc1ncc(-c2ccn[nH]2)cc1NC(=O)c1cc(F)cc(C(F)(F)F)c1` [I-74] came in with an IC50 of 1 to 10 µM.

`Cc1ccccc1Nc1ncc(-c2cnn(C)c2)cc1NC(=O)c1cccc2ccncc12` [I-105] returned an IC50 of 10 to 100 µM.

In turn, `Cn1cc(NC(=O)c2cc(F)cc(C(F)(F)F)c2)c(N2CCOc3ccccc32)cc1=O` [I-273] gave an IC50 of 1 to 10 µM.

Compound `Cc1ccccc1Nc1ncc(-c2cnn(C)c2)cc1NC(=O)c1ccc(Cl)c(Cl)c1` [I-104] gave an IC50 of 1 to 10 µM.

The compound `CNC(=O)c1cnc(Nc2cccc(OC)n2)c(NC(=O)c2csc3ccccc23)c1` [I-346] gave an IC50 of 1 to 10 µM.

Compound `Cc1cccc(C(=O)Nc2cc(-c3cnn(C)c3)cnc2Nc2ccccc2C)c1` [I-115] gave an IC50 of 10 to 100 µM.

`Cc1ccccc1Nc1ncc(-c2cnn(C)c2)cc1NC(=O)c1ccc2cc[nH]c2c1` [I-103]: the IC50 lay within 10 to 100 µM.

The compound `Cc1ccccc1Nc1ncc(-c2ccc(CNC(=O)OC(C)(C)C)cc2)cc1NC(=O)c1cc(F)cc(C(F)(F)F)c1` [I-76] had an IC50 of 1 to 10 µM.

`Cc1ccccc1Nc1ncc(C#N)cc1NC(=O)c1cc(F)cc(C(F)(F)F)c1` [I-49] displayed an IC50 of 1 to 10 µM.

With `O=C(Nc1cccc(=O)n1Cc1ccccc1)c1csc2ccccc12` [I-321], the IC50 lay within 10 to 100 µM.

`Cc1ccccc1Nc1ncc(C(=O)NCCO)cc1NC(=O)c1cc(F)cc(C(F)(F)F)c1` [I-86] returned an IC50 of 0.5 to 1 µM.

`CNC(=O)c1cnc(Nc2cc(F)ccc2Cl)c(Nc2nccc3c(Cl)cccc23)c1` [I-805, 6-((2-chloro-5-fluorophenyl)amino)-5-((5-chloroisoquinolin-1-yl)amino)-N-methylnicotinamide] had an IC50 of 10 to 100 µM.

For the compound `Cc1ccccc1Nc1ncc(-c2cnn(C)c2)cc1NC(=O)c1ccccc1C` [I-127], the IC50 lay in the range of 10 to 100 µM.

For `Cc1ccccc1Nc1cnccc1NC(=O)c1cc(F)cc(C(F)(F)F)c1` [I-220], the IC50 lay within 1 to 10 µM.

In turn, `O=C(Nc1cc(-c2ccc3ncnn3c2)cnc1N[C@H]1CCCC[C@H]1CO)c1cc(F)cc(C(F)(F)F)c1` (racemic) [I-817] showed an IC50 of 10 to 100 µM.

For `CNC(=O)c1cnc(Nc2ccccc2C)c(NC(=O)c2c[nH]c3cccc(OC)c23)c1` [I-370], the IC50 lay in the range of 10 to 100 µM.

Consider `Cc1ccccc1Nc1ncc(-c2cnn(C)c2)cc1NC(=O)c1ccccc1O` [I-130], for which the IC50 fell in the range of 10 to 100 µM.

`CNC(=O)c1cnc(Nc2ccccc2C)c(NC(=O)c2cc(F)cc(Br)c2)c1` [I-2]: the IC50 is 0.5 to 1 µM.

Compound `CNC(=O)c1cnc(Nc2ccccc2C)c(NC(=O)c2ccc(Cl)c(C#N)c2)c1` [I-382] gave an IC50 of 10 to 100 µM.

In turn, `Cc1ccccc1Nc1ncc(N2CCNCC2)cc1NC(=O)c1cc(F)cc(C(F)(F)F)c1` [I-268] returned an IC50 of 0.5 to 1 µM.

`CNC(=O)c1cnc(Nc2ccccc2S(C)(=O)=O)c(NC(=O)c2cc(F)cc(C(F)(F)F)c2)c1` [I-47] had an IC50 of 10 to 100 µM.

`Cc1ccccc1Nc1ncc(-c2cnn(C)c2)cc1NC(=O)c1csc2ccc(Cl)cc12` [I-145]: the IC50 is 1 to 10 µM.

The compound `CCn1cccc(C(=O)Nc2cc(C(=O)NC)cnc2Nc2ccccc2C)c1=O` [I-284] yielded an IC50 of 10 to 100 µM.

Still in this test, the particulars now being: ADP-Glo biochemical PIK3CA kinase assay.
The compound `CNC(=O)c1cnc(Nc2ccccc2C)c(NC(=O)c2cnc3ccc(F)cn23)c1` [I-469] yielded an IC50 of 10 to 100 µM.

With `CNC(=O)c1cnc(Nc2ccccc2C)c(NC(=O)CCc2c[nH]c3ccc(F)cc23)c1` [I-459], the IC50 was in the range of 10 to 100 µM.

Compound `CNC(=O)c1cnc(Nc2cncc(F)c2)c(NC(=O)c2csc3ccccc23)c1` [I-739] showed an IC50 of 1 to 10 µM.

Turning to `CNC(=O)c1cnc(Nc2ccccc2C)c(NC(=O)Cc2cc(Br)ccc2Cl)c1` [I-595], the IC50 was 1 to 10 µM.

The compound `CNC(=O)c1cnc(Nc2ccccc2C)c(NC(=O)c2[nH]c3ccccc3c2Br)c1` [I-522] registered an IC50 of 10 to 100 µM.

Consider `COC1CN(C(=O)c2cnc(Nc3ccccc3C)c(NC(=O)c3csc4ccccc34)c2)C1` [I-541], for which the IC50 is 1 to 10 µM.

For `CNC(=O)c1cnc(Nc2ccccc2C)c(NC(=O)c2nc3ccccn3c2F)c1` [I-415], the IC50 lay in the range of 10 to 100 µM.

Regarding `CNC(=O)c1cnc(Nc2ccccc2C)c(NC(=O)c2c[nH]c3ccc(Cl)cc23)c1` [I-514], the IC50 was in the range of 10 to 100 µM.

For `CNC(=O)c1cnc(Nc2ccccc2C)c(NC(=O)c2cccnc2CS(C)(=O)=O)c1` [I-443], the IC50 lay within 10 to 100 µM.

On to `Cc1ccccc1Nc1c(NC(=O)c2csc3ccccc23)ccc2cc[nH]c12` [I-552], for which the IC50 fell in the range of 1 to 10 µM.

The compound `CNC(=O)c1cnc(Nc2ccccc2C)c(NC(=O)c2n[nH]c3ccc(C#N)cc23)c1` [I-455] showed an IC50 of 10 to 100 µM.

Take `CNC(=O)c1cnc(Nc2ccccc2C)c(NC(=O)NC23C[C@H]4C[C@@H](C2)C[C@@H](C3)C4)c1` [I-798]: the IC50 fell in the range of 1 to 10 µM.

The compound `CNC(=O)c1cnc(Nc2ccccc2C)c(NC(=O)c2cc(F)c(C(F)(F)F)c(F)c2)c1` [I-717] registered an IC50 of 0.5 to 1 µM.

In turn, `CNC(=O)c1cnc(Nc2ccccc2C)c(NC(=O)c2ncsc2C(F)(F)F)c1` [I-492] returned an IC50 of 10 to 100 µM.

With `CNC(=O)c1cnc(Nc2ccccc2C)c(NC(=O)c2cc3ccccc3n2C)c1` [I-505], the IC50 lay in the range of 10 to 100 µM.

In turn, `CNC(=O)c1cnc(Nc2ccccc2C)c(NC(=O)c2nc3ccccn3c2C)c1` [I-427] yielded an IC50 of 10 to 100 µM.

On to `CNC(=O)c1cnc(Nc2ccccc2C)c(NC(=O)C2CCCC3CCCCC32)c1` (stereo not shown) [I-464], for which the IC50 is 10 to 100 µM.

In the case of `CNC(=O)c1cnc(Nc2ccccc2C)c(NC(=O)CCc2cc(Br)ccc2F)c1` [I-542], the IC50 was 10 to 100 µM.

Take `CNC(=O)c1cnc(Nc2cc(F)ccc2Cl)c(NC(=O)N2CCc3ccccc32)c1` [I-797, N-{2-[(2-chloro-5-fluorophenyl)amino]-5-(methylcarbamoyl)pyridin-3-yl}-2,3-dihydro-1H-indole-1-carboxamide]: the IC50 fell in the range of 10 to 100 µM.

Take `Nc1ncc(C(=O)N[C@H]2C[C@@H](C(N)=O)C2)cc1NC(=O)c1csc2ccccc12` [I-689]: the half-maximal inhibitory concentration (IC50) lay within 1 to 10 µM.

`CNC(=O)c1cnc(Nc2ccccc2C)c(NC(=O)c2cc(C)cc(F)c2F)c1` [I-491] came in with an IC50 of 10 to 100 µM.

The compound `Cc1ccccc1Nc1ncc(C(=O)NCc2ncccn2)cc1NC(=O)c1cc(F)cc(C(F)(F)F)c1` [I-719] registered an IC50 of 1 to 10 µM.

The compound `Cc1ccccc1Nc1nnccc1NC(=O)c1csc2ccccc12` [I-553] had an IC50 of 1 to 10 µM.

`COc1cncc(CNC(=O)c2cnc(Nc3ccccc3C)c(NC(=O)c3cc(F)cc(C(F)(F)F)c3)c2)c1` [I-707] came in with an IC50 of 1 to 10 µM.

In turn, `Cc1ccccc1Nc1ncc(C(=O)NCc2nnc3ccccn23)cc1NC(=O)c1cc(F)cc(C(F)(F)F)c1` [I-759] yielded an IC50 of 1 to 10 µM.

With `CNC(=O)c1cnc(Nc2ccccc2C)c(NC(=O)c2cc3cccc(Cl)c3s2)c1` [I-456], the IC50 is 1 to 10 µM.

On to `Cc1ccccc1Nc1ncc(C(=O)O)cc1NC(=O)c1csc2ccccc12` [I-629], for which the IC50 lay within 1 to 10 µM.

Compound `CNC(=O)c1cnc(Nc2ccccc2C)c(NC(=O)c2ccc3c(c2)COC3)c1` [I-447] had an IC50 of 10 to 100 µM.

On to `CNC(=O)c1cnc(Nc2ccccc2C)c(NC(=O)c2ccc(C)c(F)c2)c1` [I-723], for which the IC50 is 1 to 10 µM.

As for `CNC(=O)c1cnc(Nc2ccccc2C)c(NC(=O)c2ccnc(C(F)F)c2)c1` [I-650], the IC50 lay in the range of 1 to 10 µM.

In turn, `COc1cncc(CNC(=O)c2cc(NC(=O)c3csc4ccccc34)n(CC3CCC3)c(=O)c2)c1` [I-777] came in with an IC50 of 10 to 100 µM.

The values above are taken from patent publication US20250090540A1, “PI3K-ALPHA INHIBITORS AND METHODS OF USE THEREOF” (Relay Therapeutics, Inc., priority 2021, published 2025).
